Laboratory results: ChEMBL document CHEMBL1255313 (Antimicrob Agents Chemother, 2008)

Assays:
Homo sapiens [1] = experiment: Tmax in healthy human plasma assessed as hydroxybupropion level at 150 mg, po co-treated with ritonavir 200 mg tid for 1 day, 300 mg bid for next 6 days, 400 mg bid upto 17 day of study measured after 48 hrs; format: ADME, organism-based; conditions: in vivo
[2] = AUC in healthy human plasma at 100 mg, po bid for 2 weeks; format: ADME, organism-based
Homo sapiens [3] = experiment: AUC (0 to 72) in healthy human plasma assessed as (S,S)-hydroxybupropion level at 150 mg, po co-treated with ritonavir 200 mg tid for 1 day, 300 mg bid for next 2 days measured after 48 hrs by high-performance liquid chromatography-tandem mass spectrometry; format: ADME, organism-based; parameters: dose 150 mg, time < 72 hr, route oral; conditions: in vivo, 72 h
[4] = AUC (0 to infinity) in healthy human plasma at 150 mg, po co-treated with ritonavir 200 mg tid for 1 day, 300 mg bid for next 2 days measured after 48 hrs; format: ADME, organism-based; parameters: dose 150 mg, route oral, time infinity
Homo sapiens [5] = experiment: AUC (0 to infinity) in healthy human plasma assessed as (R,R)-hydroxybupropion level at 150 mg, po co-treated with ritonavir 200 mg tid for 1 day, 300 mg bid for next 2 days measured after 48 hrs by high-performance liquid chromatography-tandem mass spectrometry; format: ADME, organism-based; parameters: dose 150 mg, time infinity, route oral; conditions: in vivo
[6] = Apparent renal clearance in human at 150 mg, po co-treated with ritonavir 200 mg tid for 1 day, 300 mg bid for next 6 days, 400 mg bid upto 17 day of study using 0-48 hrs urine sample; format: ADME, organism-based; conditions: read-out: CL_renal
Homo sapiens [7] = experiment: AUC (0 to 72) in healthy human plasma assessed as (S,S)-hydroxybupropion level at 150 mg, po co-treated with ritonavir 200 mg tid for 1 day, 300 mg bid for next 6 days, 400 mg bid upto 17 day of study measured after 48 hrs by high-performance liquid chromatography-tandem mass spectrometry; format: ADME, organism-based; parameters: dose 150 mg, time < 72 hr, route oral; conditions: in vivo, 72 h
clinical [8] = conditions: human, plasma, po
clinical [9] = conditions: human, plasma, po; remark: listed apart in the source
Homo sapiens [10] = experiment: Apparent renal clearance in human assessed as (R,R)-Hydroxybupropion at 150 mg, po co-treated with ritonavir 200 mg tid for 1 day, 300 mg bid for next 2 days using 0-48 hrs urine sample by high-performance liquid chromatography-tandem mass spectrometry; format: ADME, organism-based; conditions: in vivo
clinical [11] = conditions: human, plasma, po; remark: listed apart in the source
Homo sapiens [12] = experiment: AUC (0 to infinity) in healthy human plasma assessed as hydroxybupropion level at 150 mg, po co-treated with ritonavir 200 mg tid for 1 day, 300 mg bid for next 2 days measured after 48 hrs; format: ADME, organism-based; parameters: dose 150 mg, time infinity, route oral; conditions: in vivo
Homo sapiens [13] = experiment: Tmax in healthy human plasma assessed as (S,S)-hydroxybupropion level at 150 mg, po co-treated with ritonavir 200 mg tid for 1 day, 300 mg bid for next 2 days measured after 48 hrs by high-performance liquid chromatography-tandem mass spectrometry; format: ADME, organism-based; conditions: in vivo
[14] = Apparent clearance with respect to oral bioavailability in human at 150 mg, po co-treated with ritonavir 200 mg tid for 1 day, 300 mg bid for next 6 days, 400 mg bid upto 17 day of study measured after 48 hrs; format: ADME, organism-based; conditions: in vivo
Homo sapiens [15] = experiment: Apparent renal clearance in human assessed as Hydroxybupropion at 150 mg, po co-treated with ritonavir 200 mg tid for 1 day, 300 mg bid for next 6 days, 400 mg bid upto 17 day of study using 0-48 hrs urine sample; format: ADME, organism-based; conditions: in vivo
Homo sapiens [16] = experiment: (§1) Tmax in healthy human plasma assessed as (R,R)-hydroxybupropion level at 150 mg, po co-treated with ritonavir 200 mg tid for 1 day, 300 mg bid for next 6 days, 400 mg bid upto 17 day of study measured after 48 hrs by high-performance liquid chromatography-tandem mass spectrometry; format: ADME, organism-based; conditions: in vivo
Homo sapiens [17] = experiment: AUC (0 to infinity) in healthy human plasma assessed as (R,R)-hydroxybupropion level at 150 mg, po co-treated with ritonavir 200 mg tid for 1 day, 300 mg bid for next 6 days, 400 mg bid upto 17 day of study measured after 48 hrs by high-performance liquid chromatography-tandem mass spectrometry; format: ADME, organism-based; parameters: dose 150 mg, time infinity, route oral; conditions: in vivo
Homo sapiens [18] = experiment: as §1, with “Tmax in healthy human plasma assessed as (S,S)-hydroxybupropion” for “(R,R)-hydroxybupropion”; format: ADME, organism-based; conditions: in vivo
Homo sapiens [19] = experiment: Apparent renal clearance in human assessed as Hydroxybupropion at 150 mg, po co-treated with ritonavir 200 mg tid for 1 day, 300 mg bid for next 2 days using 0-48 hrs urine sample; format: ADME, organism-based; conditions: in vivo
Homo sapiens [20] = experiment: AUC (0 to 72) in healthy human plasma assessed as (R,R)-hydroxybupropion level at 150 mg, po co-treated with ritonavir 200 mg tid for 1 day, 300 mg bid for next 6 days, 400 mg bid upto 17 day of study measured after 48 hrs by high-performance liquid chromatography-tandem mass spectrometry; format: ADME, organism-based; parameters: dose 150 mg, time < 72 hr, route oral; conditions: in vivo, 72 h
Homo sapiens [21] = experiment: AUC (0 to 72) in healthy human plasma assessed as hydroxybupropion level at 150 mg, po co-treated with ritonavir 200 mg tid for 1 day, 300 mg bid for next 2 days measured after 48 hrs; format: ADME, organism-based; parameters: time < 72 hr, dose 150 mg, route oral; conditions: in vivo, 72 h
[22] = AUC in healthy human plasma at 400 mg, po bid for 2 weeks; format: ADME, organism-based
[23] = Apparent renal clearance in human at 150 mg, po co-treated with ritonavir 200 mg tid for 1 day, 300 mg bid for next 2 days using 0-48 hrs urine sample; format: ADME, organism-based; conditions: read-out: CL_renal
Homo sapiens [24] = experiment: AUC (0 to 72) in healthy human plasma assessed as (R,R)-hydroxybupropion level at 150 mg, po co-treated with ritonavir 200 mg tid for 1 day, 300 mg bid for next 2 days measured after 48 hrs by high-performance liquid chromatography-tandem mass spectrometry; format: ADME, organism-based; parameters: time < 72 hr, dose 150 mg, route oral; conditions: in vivo, 72 h
Homo sapiens [25] = experiment: AUC (0 to infinity) in healthy human plasma assessed as (S,S)-hydroxybupropion level at 150 mg, po co-treated with ritonavir 200 mg tid for 1 day, 300 mg bid for next 6 days, 400 mg bid upto 17 day of study measured after 48 hrs by high-performance liquid chromatography-tandem mass spectrometry; format: ADME, organism-based; parameters: dose 150 mg, time infinity, route oral; conditions: in vivo
[26] = AUC (0 to infinity) in healthy human plasma at 150 mg, po co-treated with ritonavir 200 mg tid for 1 day, 300 mg bid for next 6 days, 400 mg bid upto 17 day of study measured after 48 hrs; format: ADME, organism-based; parameters: dose 150 mg, time infinity, route oral
Homo sapiens [27] = experiment: Apparent renal clearance in human assessed as (S,S)-Hydroxybupropion at 150 mg, po co-treated with ritonavir 200 mg tid for 1 day, 300 mg bid for next 6 days, 400 mg bid upto 17 day of study using 0-48 hrs urine sample by high-performance liquid chromatography-tandem mass spectrometry; format: ADME, organism-based; conditions: in vivo
Homo sapiens [28] = experiment: AUC (0 to infinity) in healthy human plasma assessed as hydroxybupropion level at 150 mg, po co-treated with ritonavir 200 mg tid for 1 day, 300 mg bid for next 6 days, 400 mg bid upto 17 day of study measured after 48 hrs; format: ADME, organism-based; parameters: dose 150 mg, route oral, time infinity; conditions: in vivo
Homo sapiens [29] = experiment: Apparent renal clearance in human assessed as (R,R)-Hydroxybupropion at 150 mg, po co-treated with ritonavir 200 mg tid for 1 day, 300 mg bid for next 6 days, 400 mg bid upto 17 day of study using 0-48 hrs urine sample by high-performance liquid chromatography-tandem mass spectrometry; format: ADME, organism-based; conditions: in vivo
Homo sapiens [30] = experiment: Tmax in healthy human plasma assessed as hydroxybupropion level at 150 mg, po co-treated with ritonavir 200 mg tid for 1 day, 300 mg bid for next 2 days measured after 48 hrs; format: ADME, organism-based; conditions: in vivo
Homo sapiens [31] = experiment: Apparent renal clearance in human assessed as (S,S)-Hydroxybupropion at 150 mg, po co-treated with ritonavir 200 mg tid for 1 day, 300 mg bid for next 2 days using 0-48 hrs urine sample by high-performance liquid chromatography-tandem mass spectrometry; format: ADME, organism-based; conditions: in vivo
[32] = Apparent clearance with respect to oral bioavailability in human at 150 mg, po co-treated with ritonavir 200 mg tid for 1 day, 300 mg bid for next 2 days measured after 48 hrs; format: ADME, organism-based; conditions: in vivo
Homo sapiens [33] = experiment: AUC (0 to 72) in healthy human plasma assessed as hydroxybupropion level at 150 mg, po co-treated with ritonavir 200 mg tid for 1 day, 300 mg bid for next 6 days, 400 mg bid upto 17 day of study measured after 48 hrs; format: ADME, organism-based; parameters: dose 150 mg, time < 72 hr, route oral; conditions: in vivo, 72 h
Homo sapiens [34] = experiment: Tmax in healthy human plasma assessed as (R,R)-hydroxybupropion level at 150 mg, po co-treated with ritonavir 200 mg tid for 1 day, 300 mg bid for next 2 days measured after 48 hrs by high-performance liquid chromatography-tandem mass spectrometry; format: ADME, organism-based; conditions: in vivo
clinical [35] = conditions: human, plasma, po; remark: listed apart in the source
Homo sapiens [36] = experiment: AUC (0 to infinity) in healthy human plasma assessed as (S,S)-hydroxybupropion level at 150 mg, po co-treated with ritonavir 200 mg tid for 1 day, 300 mg bid for next 2 days measured after 48 hrs by high-performance liquid chromatography-tandem mass spectrometry; format: ADME, organism-based; parameters: dose 150 mg, time infinity, route oral; conditions: in vivo

What does the source list for CC(NC(C)(C)C)C(=O)c1cccc(Cl)c1 (racemic) [BUPROPION]?
Tmax (Homo sapiens [1]): 3.4 h; AUC at 336 h [2]: 50 ng·h/mL; AUC (Homo sapiens [3]): 356 ng·h/mL; AUC(0-inf) [4]: 1290 ng·h/mL; AUC (Homo sapiens [5]): 10950 ng·h/mL; CL renal [6]: 21 mL/min; AUC (Homo sapiens [7]): 274 ng·h/mL; half-life (clinical [8]): 16.8 h; half-life (clinical [9]): 17.8 h; CL_renal (Homo sapiens [10]): 172 mL/min; Cmax (clinical [11]): 267 ng/mL; AUC (Homo sapiens [12]): 11330 ng·h/mL; Tmax (Homo sapiens [13]): 1.7 h; CL/F [14]: 3240 mL/min; CL_renal (Homo sapiens [15]): 183 mL/min; Tmax (Homo sapiens [16]): 3.5 h; AUC (Homo sapiens [17]): 7330 ng·h/mL; Tmax (Homo sapiens [18]): 1.5 h; CL_renal (Homo sapiens [19]): 143 mL/min; AUC (Homo sapiens [20]): 5829 ng·h/mL; AUC (Homo sapiens [21]): 8470 ng·h/mL; AUC at 336 h [22]: 57 ng·h/mL; CL renal [23]: 20 mL/min; AUC (Homo sapiens [24]): 8120 ng·h/mL; AUC (Homo sapiens [25]): 303 ng·h/mL; AUC(0-inf) [26]: 1030 ng·h/mL; CL_renal (Homo sapiens [27]): 134 mL/min; AUC (Homo sapiens [28]): 7560 ng·h/mL; CL_renal (Homo sapiens [29]): 217 mL/min; Tmax (Homo sapiens [30]): 3.6 h; CL_renal (Homo sapiens [31]): 96 mL/min; CL/F [32]: 2470 mL/min; AUC (Homo sapiens [33]): 6100 ng·h/mL; Tmax (Homo sapiens [34]): 3.8 h; Cmax (clinical [35]): 345 ng/mL; AUC (Homo sapiens [36]): 404 ng·h/mL
